From PMC8776730 (Nature Communications, 2022)
Blank lines part the entries; values can stand above or below the substance they belong to.

Tests used:
[1] = MIA PaCa-2 cells / Miapaca-2 cell lysis; conditions: up to 2 h
[2] = MIA PaCa-2 cells (supplement contents: Miapaca-2 cell lysis); conditions: up to 2 h
[3] = tested on: Recombinant Human Fibroblast Activation Protein-α (FAP-α); experiment: FAP-α in buffer: 50 mM Tris, 1 M NaCl, 1 mg/mL, BSA, pH 7.5; conditions: up to 12 h
[4] = Critical assembly concentration (CAC) by pyrene fluorescence probe; format: physicochemical; conditions: for I1/I3: pyrene fluorescence
From the text: In order to study the molecular design and their assembly behavior, we modular designed and synthesized seven molecules (Table 1), which respectively were BIVA probe: M1 (mPEG-GPAKLVFFGC(IR783)GRGD); the non- FAP-α tailoring molecule: M2 (mPEG-AGGKLVFFGC(IR783)GRGD) scrambled response tailoring motif of Gly-Pro-Ala with Ala-Gly-Gly; the non-labeling molecule of M1: M3 (mPEG-GPAKLVFFGCGRGD) removed IR783 labeling; FAP-α tailoring residue of M1: R-M1 (AKLVFFGC(IR783)GRGD); the non-targeting molecule: M4 (mPEG-GPAKLVFFGC(IR783)GDTG) scrambled targeting tailoring motif of Arg-Gly-Asp with Asp-Thr-Gly; the non-labeling molecule of M2: M5 (mPEG-AGGKLVFFGCGRGD) removed IR783 labeling; FAP-α tailoring residue of M3: R-M3 (AKLVFFGCGRGD). All the synthesized procedure (Supplementary Fig. 1) and characterizations of these seven molecules can be found in SI (Supplementary Figs. 2–8). […] Without IR783 labeling, molecules of M3 and M5 decreased the CAC value in solution relative to M1 and M2, which could be attributed to the proximity of the steric hindrance of hydrophilic IR783 to the self-assembly motif (Supplementary Fig. 9). […] The CAC was quantitatively calculated by fluorescence probe of pyrene.

[5] = Secondary structure proportions from CD spectra; format: physicochemical; conditions: calculated by Reed's Reference based on CD spectra; DI water
From the text: To further evaluate the assembled structures, the corresponding circular dichroism (CD), Fourier transform infrared (FTIR) spectroscopy, and wide-angle X-ray scattering (WAXS) spectroscopy were applied. […] The FITR spectra of M1 and M3 in Fig. 3b observed the intermolecular interactions. The peaks at 1629 cm^−1, 1675 cm^−1, and 1698 cm^–1 of M3 indicated anti-parallel β-sheet structure (represent by green arrow heads), peaks at 1648 cm^−1 and 1663 cm^−1 indicated parallel beta sheet structure (represent by blue arrow heads), the existence of 1654 cm^−1 indicate α-Helix structure in M1 which verified the results deduced by CD in Fig. 3a[29],[30]. […] As a homologous sequence with amyloid β-protein (Aβ), the self-assembly motif with peptide sequence of KLVFFGCG had similar aggregation kinetics to (Aβ)42 peptide, which occurred via dynamic growth from oligomers to amyloid fibrils. The aggregation started from the freshly isolated monomers of R-M1, and precipitates were separated in 1 min and 1 h, respectively. […] After analyzed the CD spectra of M1, M3, and R-M1 (Fig. 3e), it can be clearly seen that the main secondary conformation of M1 was Random, the M3 was hybrid of Helix and Beta, and the R-M1 was Beta (Supplementary Table 1). All the results confirmed the conclusion from FTIR spectra. […] The dynamic growth procedure was like the 8-anilino-1-naphthalenesulfonic acid (ANS) stained curve (Supplementary Fig. 12). As known, ANS was sensitive to hydrophobic interaction. When R-M1 were in the initial oligomer, the fluorescence intensity of ANS increased due to the enhanced hydrophobicity. When the molecules were elongated and stacked in higher ordered nanofibrils, the blue shift of ANS in the β-sheet structures reduced the fluorescence. The molecular packing mode of well-ordered fibrils of R-M1 in Fig. 3g observed a weak reflection at 4.9 Å as laminates space and a strong broad reflection at 10.3 Å as sheet space, which was illustrated in the inserted figure. The fibril morphology was characterized by transmission electron microscopy (TEM) imaging (Fig. 3f). The statistical calculation of the fiber diameter in TEM images was 5.0 ± 0.4 nm (Supplementary Fig. 13), which was corresponded to the theoretical calculated two molecules length of R-M1. We assumed that the nanofibers were assembled by twisted R-M1 molecules centered on self-assembly motif.
The secondary structures of M1, M3 and R-M1 were verified by CD spectroscopy (JASCO Corporation, JC-1500) at room temperature with a cell path length of 1 cm. M1, […] and R-M1 were diluted to 100 μM with deionized water at 25 °C and allowed to stand for 12 h for complete assembly. Detail parameter setting were CD scale:200 mdeg/1.0Dod, measure range: 260~190 nm, scanning speed: 500 nm/min, bandwidth: 1.00 nm, and data pitch: 0.5 nm. All spectra were the average of three measurements.
Supplementary Table 1∣ Secondary structure proportions ofM1, M3 and R-M1 calculated by Reed’s Reference based on […]

[6] = Nanofiber dynamic growth, ThT staining; format: physicochemical; conditions: aggregation curve with ThT trace
MIA PaCa-2 cells [7] = experiment: Cellular imaging (CLSM) of FITC-labelled molecules; format: cell-based
Procedure: To further confirm this hypothesis, the M1 and M2 were equally labeled by FITC for cell imaging (Fig. 5b). To simulate the dynamic physiological condition, the cell culture medium was replaced every 15 min. After 1 h of incubation with M1 and M2 at the same molecule molar concentration, there occurred significant differences between the two molecules (Fig. 5c). […] The huge difference can be explained by the fact that the secondary assembly rate broke the balance between the targeted ligand and receptor, and thus tended to a stable assembly interaction. The retention efficiency depended on the assembly rate constant Ka. Meanwhile, the rapid dynamic assembly of BIVA probe in situ around the cell membrane, and contributed to the efficient formation and retention of nanofibers on the cell profile. When the incubation time was delayed up to 2 h, some components could be endocytosed into the cells, but most of them were found on the membranes (Supplementary Fig. 18). […] Then, the isolated cells were collected and lysed, the extracted cell membrane fragments were stained with ThT. […] In order to verify the influence of the addition of the targeting module of the probe molecules, we explored the imaging of R-M1 and M4 on cells.
(§1) Fig. 5 The BIVA effect with enhanced targeting to pancreatic tumor cell for boundaries imaging. a Illustration of BIVA effect: active targeting and assembly/aggregate induced retention (AIR) effect. b Chemical structure of FITC labeling. c 2D and 3D confocal images of M2 with active targeting property and M1 with BIVA effect on MIA PaCa-2 cells after incubation for 1 h. d The distribution of M1 on MIA PaCa-2 cell. e ThT staining of the lysed cell membrane of MIA PaCa-2. f, Illustration of migration inhibition after treated by BIVA probe. g The image of the migrated cells after treatment of PBS (blank), M2, M4, and M1. Scale bar: 100 μm. h The pie diagram of quantitative statistical calculation of the migrated cells (blue) in different groups. The blank control was set as 100% migrated cells.
MIA PaCa-2 cells were digested with trypsin, counted with cell counting plate, diluted to 1 × 10^4 with DMEM medium, and 1 mL to 1 cm diameter confocal microscope dish was taken. The cells were incubated in […] atmosphere for 24 h. The medium containing M1 and M2 (50 μM) was replaced and incubated with the cells for 2 h. The cells were washed with PBS for 3 times. CLSM (Zeiss 710) was used to image cells under 40 × objective, excitation = 488 nm, and emission >520 nm.
Supplementary Fig. 19 ∣ CLSM images of Miapaca-2 cells treated with different molecules or M1 under different conditions. […]

MIA PaCa-2 cells [8] = experiment: Transwell migration assay; format: cell-based; conditions: for migrated cells (Fig S20): MIA PaCa-2 cells
Procedure: as §1
In order to further understand the contribution of the active targeting and AIR effect during locating of the cells, the cell transwell experiment was used to quantitively evaluate interference of the cell migration based on M1, M2, and M4 (Fig. 5f). As expected, untreated cells were easy to migrate to the lower chamber, while the cells treated with active targeting molecule M2 and assembled molecule M4, the migration of cell were reduced. Under the same molar concentration, the M1 treatment group had the most inference on cell migration (Fig. 5g). […] Based on those results, we speculate M1 can be more enriched in the tumor site and form fibers through assembly to inhibit tumor cell migration compared to M2 and M4 which have no ability to target and adhere on the cell membrane.
Transwell migration assay occurred in chemotaxis chambers containing 24 wells. […] Bottom chambers contained DMEM medium containing 10% FBS. After 24 h of treatment with M1, M2, and M4 (150 μM), we fixed cells using 4% paraformaldehyde and stained with 0.25% crystal violet solution. The stained cells were counted using a microscope.
Supplementary Fig. 20∣ The quantitative results of the migrated cells after treatment of PBS (blank), M2, […] and
M1 (Fig 5g). The mean of results of fiveparallel experiments is shown and data were expressed as mean ± SD (n=5).
pM1 = 5.85E-06, pM2 = 5.94E-05, pM4 = 3.16 E-04, Statisticalanalysis: one-way ANOVA followed by post hoc Tukey’s
(§2) (1 picture or pasted object on this page, not shown here)

MIA PaCa-2 cells [9] = experiment: Cytotoxicity, CCK-8 assay; format: cell-based; conditions: CCK-8, 24 h, at high concentration of 300 μM
Procedure: The cytotoxicity of M1 and M2 was evaluated using CCK-8 assay in MIA PaCa-2 cells. Cells were seeded into 96-well plates at a density of 5 × 10^4 cells per well and placed in an incubator for 14 h. Subsequently, the sample was diluted into a series of different concentrations (0, 50, 100, 150, 200, 250, 300, and 350 μM) and incubated with cells for 24 h. After that, 10 μL of CCK-8 solution was added to each well and incubated for 2 h. The absorbance of blank wells (Ab), sample wells (As) and control wells (Ac) were measured with a microplate reader at a test wavelength of 450 nm and a reference wavelength of 690 nm. The cell viability rate (%) is equal to (As -Ab) / (Ac -Ab) ×100%. All experiments were repeated in triplicate.
Supplementary Fig. 21∣ Cellviability assay of Miapaca-2 cells treated with a series concentration of M1 and M2 for 24 h.
Tested by Cell Counting Kit-8 (Beyotime, C0039) The mean of results of six parallel experiments isshown and data were
expressed as mean ± SD (n=6).
as §2

MIA PaCa-2 tumor = conditions: mouse, in vivo, 16 mg/kg
Procedure: In order to reduce systemic error and individual difference, we constructed the subcutaneous pancreatic cancer model in mice for quantitatively calculating of the metabolic data.
All the animal experiments were performed in accordance with the Guide for the Care and Use of Laboratory Animals approved by the Committee for Animal Research of the National Center for Nanoscience and Technology. The MIA PaCa-2 tumor-bearing mice were intravenously injected with ICG, M1 and M2 (16 mg/kg), respectively for in vivo fluorescence imaging with in vivo spectrum imaging system. Finally, mice were sacrificed to collect the major organs and tumors for ex vivo fluorescence imaging.

[10] = mouse, in vivo, iv, 16 mg/kg

- fragment found [1]: PEG residues
- fragment found [2]: R-M1
- cleaved bond [3]: Pro-Ala
Substance: mPEG-GPAKLVFFGC(IR783)GRGD

- I1/I3 ([4]; conc 1.56 μM): 1.233
- I1/I3 ([4]; conc 12.5 μM): 1.275
- I1/I3 ([4]; conc 25 μM): 1.246
- I1/I3 ([4]; conc 100 μM): 1.302
- I1/I3 ([4]; conc 200 μM): 1.43
Substance: AKLVFFGC(IR783)GRGD [R-M1, FAP-α tailoring residue of M1]
- Critical assembly concentration (CAC) ([4]; aqueous solution, analyzed based on pyrene fluorescence): 37.2 µM
- Secondary structure proportion: Beta [5]: 72%
- Secondary structure proportion: Helix [5]: 0.5%
- Secondary structure proportion: Random [5]: 0%
- Secondary structure proportion: Turn [5]: 27.5%
- final plain phase [6]: > 30 min
- state in the medium (solubility) (MIA PaCa-2 cells [7]; co-incubation with MIA PaCa-2 cells): insoluble suspended mixture

Substance: mPEG-AGGKLVFFGC(IR783)GRGD [M2]
- fluorescence signal on the cell membrane (MIA PaCa-2 cells [7]; FITC-labelled molecules, MIA PaCa-2 cells, 1 h incubation, CLSM): significantly reduced the fluorescence signal
- emigrate (migrated cells relative to blank) (MIA PaCa-2 cells [8]; MIA PaCa-2, 150 μM, 24 h, blank control = 1): 0.6397
- migrated cells (Fig S20) (MIA PaCa-2 cells [8]; averge of groups 1-3): 587
- migrated cells (Fig S20) (MIA PaCa-2 cells [8]; group 1): 547
- migrated cells (Fig S20) (MIA PaCa-2 cells [8]; group 2): 625
- migrated cells (Fig S20) (MIA PaCa-2 cells [8]; group 3): 589
- cytotoxicity (MIA PaCa-2 cells [9]): no obvious cytotoxicity
- reduction of tumor fluorescence signal between 12 h and 120 h (MIA PaCa-2 tumor): disappeared completely
- time of distribution and accumulation in the tumor area (MIA PaCa-2 tumor; iv): 0.1 to 24 h
- blood circulation half-life (t1/2) [10]: 1.7 ± 0.067 h
